Experimental data from patent US20240239788A1, “SMALL MOLECULE INHIBITORS OF KRAS G12D MUTANT” (Merck Sharp & Dohme LLC, priority 2021, published 2024).
Read-outs that look alike come from different tables or passages of the source.

What was measured:
[1] = tested on: AsPC-1 cells containing homozygous KRAS-G12D activating mutation; assay: Cellular phospho-ERK assay (Examples 1a-106); type: cell-based; details: AsPC-1 cells, 2 hours, ratio of p-Erk vs total Erk, read-out: IC50 (nM) pERK (Cell)
Source text: 5% CO? overnight. […] Assay plates were read on a EnVision Multimode Plate Reader (PerkinElmer) and the ratio of p-Erk vs total Erk in each well was used as the final readout.

[2] = target: KRAS protein containing G12D mutation (Homo sapiens (Human), UniProt P01116, G12D); assay: SOS-catalyzed nucleotide exchange assay (GNE), TR-FRET; type: biochemical; details: biotinylated KRAS G12D, SOS and GTP, 60-minute incubation
Description: Compounds are added to this complex and then after a 60-minute incubation time the mixture is treated with SOS and unlabeled GTP. Small molecule inhibitors stabilize the Bodipy-GDP complex whereas the untreated protein rapidly exchanges Bodipy-GDP for unlabeled GTP resulting in reduced TR-FRET signal.
This solution is referred to as biotinylated KRAS G12D stock solution.

[3] = target: KRAS G12D / Ras binding domain of C-RAF (Homo sapiens (Human), UniProt P01116, G12D); assay: RAS:RAF-RBD binding assay (cRaf), TR-FRET; details: biotinylated KRAS G12D, GST-C-RAF RBD
Sequence of KRAS G12D / Ras binding domain of C-RAF (P01116 other isoform, or with tags, fused parts or gaps G12D (already in the parent)): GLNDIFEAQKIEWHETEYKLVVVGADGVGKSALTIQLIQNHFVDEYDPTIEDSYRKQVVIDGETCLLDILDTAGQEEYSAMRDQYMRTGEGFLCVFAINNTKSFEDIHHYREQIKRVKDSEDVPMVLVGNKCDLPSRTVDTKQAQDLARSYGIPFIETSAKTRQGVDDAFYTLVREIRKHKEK
Description: Compounds are added to KRAS and then after a 30-minute incubation time the RAF-RBD and detection antibodies are added. Small molecule inhibitors that block the interaction of c-RAF-RBD prevent generation of a TR-FRET signal.
Biotinylated KRAS G12D protein is diluted to 20 nM in assay buffer (20 mM HEPES pH 7.5, 150 mM sodium chloride, 10 mM magnesium chloride, and 0.01% Tween20).
Each test compound (10 mM stock in DMSO) is diluted in DMSO to make a 10-point, 3-fold dilution series in a 384-well low dead volume microplate (Labcyte, catalog #LP-0200).
Each well of the assay plate receives 5 μL of Biotinylated KRAS G12D assay solution and is incubated at room temperature for 30 minutes. Each well then receives 5 μL of 100 nM GST-C-RAF RBD protein and a 1:100 dilution of both anti-GST-d2 (Cisbio catalog #61GSTDLA) and Streptavidin-Tb cryptate (Cisbio catalog #610SATLA) in assay buffer and the plate is mixed and briefly centrifuged followed by a 60 minute incubation at room temperature.
The apparent effect as a function of compound concentration is fit to a four-parameter logistic equation.

Sequence of KRAS protein containing G12D mutation (P01116 other isoform, or with tags, fused parts or gaps G12D (already in the parent)): as above

Compound | IC50 ([1]; Homo sapiens, ASPC1, 2 h) [nM] | IC50 [2] [nM] | IC50 ([3]; IC50 (nM) (cRaf)) | IC50 [1] [nM] | IC50 ([3]; read-out: IC50 (nM) (cRaf))
CN(C)CC1(COc2nc(N3CC4CC[C@@](C)(C3)N4)c3cc(Cl)c(-c4cc(O)cc5ccccc45)c(F)c3n2)CC1 [Example 35, 4-(6-chloro-2-((1-((dimethylamino)meth-yl)cyclopro-pyl)methoxy)-8-fluoro-4-((1S,5R)-1-methyl-3,8-diaza-bicyclo[3.2.1]octan-3-yl)quinazolin-7-yl)naphthalen-2-ol] | 2260 | 27.3 | 1890 | – | –
O=c1oc(-c2cc(O)cc3ccccc23)cc2nc(OCC3(CN4CCOCC4)CC3)nc(N3CC4CCC(C3)N4)c12 [Ex. 95, 4-(3.8-diazabicyclo[3.2.1]octan-3-yl)-7-(3-hydroxynaphthalen-1-yl)-2-((1-(morpholinomethyl)cyclopropyl)methoxy)-5H-pyrano[4.3-d]pyrimidin-5-one] | – | 73.4 | – | 10800 | 15900
Cc1cc2[nH]ncc2c(-c2c(F)cc3c(N4C[C@H]5CC[C@@H](C4)N5)nc(OCC4(CN(C)C)CC4)nc3c2F)c1Cl [Example 65, 1-(1-(((4-((1R,5S)-3,8-diazabicyclo[3.2.1]octan-3-yl)-7-(5-chloro-6-methyl-1H-indazol-4-yl)-6,8-difluoroquinazolin-2-yl)oxy)methyl)cyclopropyl)-N,N-dimethylmethanamine] | 2840 | 272 | 45700 | – | –
C[C@@]12CC(O)[C@@](C)(CN(c3nc(OC[C@@]45CCCN4C[C@H](F)C5)nc4c(F)c(-c5cc(O)cc6cccc(Cl)c56)c(F)cc34)C1)N2 (stereo partly drawn) [Example 106] | – | 2.09 | – | 76.1 | 49.4
Cc1cc(O)cc(-c2c(F)cc3c(N4CC5CCC(C4)N5)nc(OCC4(CN5CCOCC5)CC4)nc3c2F)c1SC(F)(F)F [Example 49, 3-(4-(3,8-diazabicyclo[3.2.1]octan-3-yl)-6,8-difluoro-2-((1-(morpholinomethyl)cyclopropyl)methoxy)quinazolin-7-yl)-5-methyl-4-((trifluoromethyl)thio)phenol] | 4990 | 184 | 24700 | – | –
CN(C)CC1(COc2nc(N3C[C@H]4C[C@@H](O)[C@@H](C3)N4)c3cc(Cl)c(-c4cc(O)cc5ccccc45)c(F)c3n2)CC1 (single isomer, unassigned) [Example 18b] | – | 77.3 | 2680 | 50800 | –
C[C@]12CC[C@H](CN(c3nc(OC[C@@]45CCCN4C[C@H](F)C5)nc4c(F)c(-c5cc(O)cc6cccc(Cl)c56)ncc34)C1)N2 [Ex. 99, 5-chloro-4-(8-fluoro-2-(((2R,7aS)-2-fluorotetrahydro-1H-pyrrolizin-7a(5H)-yl)methoxy)-4-((1S,5R)-1-methyl-3,8-diazabicyclo[3.2.1]octan-3-yl)pyrido[4,3-d]pyrimidin-7-yl)naphthalen-2-ol] | 243 | 2.46 | – | – | 57.5
Oc1cc(-c2c(F)cc3c(N4CC5CC(O)C(C4)N5)nc(OCC4(CN5CCOCC5)CC4)nc3c2F)c2ccccc2c1 (single isomer, unassigned) [Example 16] | 5760 | 30.2 | 871 | – | –
CN(C)CC1(COc2nc(N3C[C@@H]4CC[C@H]3CN4)c3cc(F)c(-c4cc(O)cc5ccccc45)c(F)c3n2)CC1 [Example 7, 4-(4-((1S,4S)-2,5-diazabicyclo[2.2.2]octan-2-yl)-2-((1-((dimethylamino)methyl)cyclopropyl)methoxy)-6,8-difluoroquinazolin-7-yl)naphthalen-2-ol] | 5020 | 35.5 | 2990 | – | –
C[C@@]12CC[C@@H](CN(c3nc(OCC4(CN5CC[C@@H](F)C5)CC4)nc4c3CCN(c3cccc5cccc(Br)c35)C4)C1)N2 [compound 94, 7-(8-bromonaphthalen-1-yl)-2-((1-(((R)-3-fluoropyrroli-din-1-yl)methyl)cyclopropyl)methoxy)-4-((1S,5R)-1-methyl-3,8-diazabicyclo[3.2.1]octan-3-yl)-5,6,7,8-tetrahydropyrido[3,4-d]pyrimidine] | 8470 | 116 | 32900 | – | –
CN(C)CC1(COc2nc(N3CC4CC(O)C(C3)N4)c3cc(Cl)c(-c4cc(O)cc5ccccc45)c(F)c3n2)CC1 (single isomer, unassigned) [Example 22b, 3-(6-chloro-2-((1-((dimethylamino)meth-yl)cyclo-propyl)methoxy)-8-fluoro-7-(3-hydroxy-naphthalen-1-yl)quinazolin-4-yl)-3,8-diazabicyclo[3.2.1]oc-tan-6-ol] | – | 78.9 | 8450 | 38300 | –
CN1CCC[C@H]1COc1nc(N2CC3CCC(C2)N3)c2cc(Cl)c(-c3cc(O)cc4ccccc34)c(F)c2n1 [Ex. 5, 4-(4-(3.8-diazabicyclo[3.2.1]octan-3-yl)-6-chloro-8-fluoro-2-(((S)-1-methylpyrrolidin-2-yl)methoxy)quinazolin-7-yl)naphthalen-2-ol] | – | 106 | – | 6640 | 17300
Cc1c(Cl)cc2[nH]nc(C)c2c1-c1c(F)cc2c(N3C[C@H]4CC[C@@](C)(C3)N4)nc(OCC3(CN(C)C)CC3(F)F)nc2c1F (single isomer, unassigned) [Ex 68] | 2380 | 39.9 | 3300 | – | –
C[C@]12CC[C@H](CN(c3nc(OCC4(CN5CC[C@@H](F)C5)CC4)nc4c3CCN(c3cccc5cccc(Br)c35)C4)C1)N2 [Ex. 93, 7-(8-bromonaphthalen-1-yl)-2-((1-(((R)-3-fluoropyrrolidin-1-yl)methyl)cyclopropyl)methoxy)-4-((1S,5R)-1-methyl-3,8-diazabicyclo[3.2.1]octan-3-yl)-5,6,7,8-tetrahydropyrido[3.4-d]pyrimidine] | – | 437 | – | 7130 | 35300
Cc1c(Cl)cc2[nH]nc(C)c2c1-c1c(F)cc2c(N3C[C@H]4CC[C@@](C)(C3)N4)nc(OCC3(CN4CC[C@@H](F)C4)CC3)nc2c1F [Ex 84, 7-(6-chloro-3,5-dimethyl-1H-indazol-4-yl)-6,8-difluoro-2-((1-(((R)-3-fluoropyrrolidin-1-yl)methyl)cyclopropyl)methoxy)-4-((1S,5R)-1-methyl-3,8-diazabicyclo[3.2.1]octan-3-yl)quinazoline] | 6160 | 156 | 9320 | – | –
CN(C)CC1(COc2nc(N3C[C@@]4(C)CC[C@H]3CN4)c3cc(Cl)c(-c4cc(O)cc5ccccc45)c(F)c3n2)CC1 (single isomer, unassigned) [Example 38a] | – | 45.2 | 617 | 1280 | –
CN(C)CC1(COc2nc(N3CC4C[C@@H](O)[C@@](C)(C3)N4)c3cc(Cl)c(-c4cc(O)cc5ccccc45)c(F)c3n2)CC1 (stereo in doubt) [Example 43, 3-(6-chloro-2-((1-((dimethylamino)methyl)cyclopropyl)methoxy)-8-fluoro-7-(3-hydroxynaphthalen-1-yl)quinazolin-4-yl)-5-methyl-3,8-diazabicyclo [3.2.1]octan-6-ol] | 12600 | 74.3 | 2200 | – | –
Cc1cc2[nH]ncc2c(-c2c(F)cc3c(N4C[C@H]5CC[C@@](C)(C4)N5)nc(OC[C@@]45CCCN4C[C@H](F)C5)nc3c2F)c1C(F)(F)F [Ex 86, 6,8-difluoro-2-(((2R,7aS)-2-fluorotetrahydro-1H-pyrrolizin-7a(5H)-yl)methoxy)-7-(6-methyl-5-(trifluoromethyl)-1H-indazol-4-yl)-4-((1S,5R)-1-methyl-3,8-diazabicyclo [3.2.1]octan-3-yl)quinazoline] | 213 | 0.723 | 268 | – | –
CN(C)C[C@@]1(COc2nc(N3C[C@H]4CC[C@@](C)(C3)N4)c3cnc(-c4cc(O)cc5cccc(Cl)c45)c(F)c3n2)CC1(F)F [Ex. 100, 5-chloro-4-(2-(((R)-1-((dimethylamino)methyl)-2,2-difluorocyclopropyl)methoxy)-8-fluoro-4-((1S,5R)-1-methyl-3,8-diazabicyclo[3.2.1]octan-3-yl)pyrido[4,3-d]pyrimidin-7-yl)naphthalen-2-ol] | 99.8 | 1.56 | 89.9 | – | –
CN(C)CC1(COc2nc(N3C[C@H]4CC[C@@](C)(C3)N4)c3nnc(-c4cc(O)cc5ccccc45)cc3n2)CC1 [Ex. 101, 4-(6-((1-((dimethylamino)methyl)cyclopropyl)methoxy)-8-((1S,5R)-1-methyl-3,8-diazabicyclo[3.2.1]octan-3-yl)pyrimido[5,4-c]pyridazin-3-yl)naphthalen-2-ol] | 42200 | 1020 | 20900 | – | –
CN(C)CC1(COc2nc(N3CC4CCC(CC#N)(C3)N4)c3cc(Cl)c(-c4cc(O)cc5ccccc45)c(F)c3n2)CC1 (stereo not drawn) [Example 36, 2-(3-(6-chloro-2-((1-((dimethylamino)meth-yl)cyclopro-pyl)methoxy)-8-fluoro-7-(3-hydroxy-naphthalen-1-yl)quinazolin-4-yl)-3,8-diazabicyclo[3.2.1]oc-tan-1-yl)acetonitrile] | 46400 | 4680 | 50000 | – | –
